Measured values published in ChEMBL document CHEMBL2163320, “Benzofuranones as potential antinociceptive agents: structure-activity relationships” (2012).

What was measured:
Mus musculus [1] = test: Antinociceptive activity in Swiss mouse assessed as inhibition of acetic acid-induced abdominal constriction administered 30 to 60 mins prior to acetic acid challenge measured over 20 mins by writhing test; type: functional; details: Abdomen; for ED50: read-out: ID50 (the source's name)
Mus musculus [2] = test: Antinociceptive activity in Swiss mouse assessed as inhibition of acetic acid-induced abdominal constriction at 10 mg/kg administered 30 to 60 mins prior to acetic acid challenge measured over 20 mins by writhing test; type: functional, Abdomen
Mus musculus [3] = test: Antinociceptive activity in Swiss mouse assessed as inhibition of acetic acid-induced abdominal constriction at 30 mg/kg administered 30 to 60 mins prior to acetic acid challenge measured over 20 mins by writhing test; type: functional, Abdomen

Structure (SMILES)	inhibition (Mus musculus [1])	ED50 (Mus musculus [1])	Imax (Mus musculus [2])	Imax (Mus musculus [3])
O=C(CC1OC(=O)c2ccccc21)c1ccc(Cl)cc1 (configuration not stated)	Dose-dependent effect	33.7 µmol/kg	73.5%	97.7%
O=C(CC1OC(=O)c2ccccc21)c1ccc(Cl)c(Cl)c1 (configuration not stated)		34.6 µmol/kg		90.7%
COc1ccc(C(=O)CC2OC(=O)c3ccccc32)cc1OC (configuration not stated)			49.4%	
